Data set [1] deals with HCT116 cells. Kind of data set: Live cell imaging of peptide uptake, HCT116. Type of data set: cell-based, Human. The following applies: fluorescein-labelled TBMB conjugates, 10 μM. The protocol: Two cell lines, HeLa and HCT116, were used for these experiments. HeLa is a Human cervix epitheloid carcinoma and HCT116 is a Human colon carcinoma. Both cell types are widely available; for instance, HeLa cells are available from the UK HPA under catalogue number 93021013. HCT116 cells are available from the UK HPA under catalogue number 91091005.
Cells were seeded in Lab-Tek chambered borosilicate coverglass (Nunc). After culturing for 48 hrs (cells reached 40-60% confluency), media was removed and a fresh media supplemented with 10 μM of peptides was added to the cells. Cells were cultivated for a further 3.5 hrs or 24 hrs. At the end of the incubation time cells were washed 3×DMEM and finally resuspended in DMEM complete media supplemented with 10 mM HEPES buffer. Live cell imaging was performed on a laser scanning microscope (LSM 710, Zeiss), differential interference contrast (DIC) and fluorescent images were taken.
The cells were cultured in Dulbecco's Modified Eagle's Medium (DMEM, GIBCO) and supplemented with 10% (v/v) of heat-inactivated fetal bovine serum, 2 mM L-glutamine, 10 U/ml penicillin, and 100 ug/ml streptomycin (DMEM complete media) at 37° C. in a 5% CO2 atmosphere.

The target in data set [2] is Human Serum Albumin (HSA) (Homo sapiens, UniProt P02768). The data set can be described thus: Fluorescence anisotropy titration with HSA. Type of data set: binding. The following applies: 200 nM fluorophore; Hill equation; Kd cannot be determined accurately. (In general: In fluorescence polarisation assays a small probe gives low polarisation when free and higher when bound to something large.)
Sequence of Human Serum Albumin (HSA) (P02768 25-609): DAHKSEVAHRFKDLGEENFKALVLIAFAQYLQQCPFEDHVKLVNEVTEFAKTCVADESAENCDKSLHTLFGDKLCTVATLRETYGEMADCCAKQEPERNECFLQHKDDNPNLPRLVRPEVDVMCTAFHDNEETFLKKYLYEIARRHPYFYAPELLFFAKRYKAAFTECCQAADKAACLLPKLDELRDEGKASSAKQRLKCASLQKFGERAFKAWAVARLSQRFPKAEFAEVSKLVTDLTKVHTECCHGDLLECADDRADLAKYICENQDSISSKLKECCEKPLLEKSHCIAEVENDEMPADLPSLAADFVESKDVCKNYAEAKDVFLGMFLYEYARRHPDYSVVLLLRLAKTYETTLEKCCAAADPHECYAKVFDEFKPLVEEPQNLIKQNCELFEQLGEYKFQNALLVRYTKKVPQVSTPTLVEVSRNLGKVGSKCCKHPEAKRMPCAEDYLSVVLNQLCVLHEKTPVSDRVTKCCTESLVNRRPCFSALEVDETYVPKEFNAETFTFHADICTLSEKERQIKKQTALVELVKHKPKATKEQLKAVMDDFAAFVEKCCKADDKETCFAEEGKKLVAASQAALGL

Data set [3] deals with bovine serum albumin (BSA) (Bos taurus, UniProt P02769). The data set can be described thus: Fluorescence anisotropy titration with BSA. An excerpt:
For determining the affinity constant (Kd) of a fluorophore to target protein, we chose fluorescence anisotropy titrations.
Excitation was specific for coumarin (328 nm), and emission at 393 nm.
To determine whether a neighbouring group (here, Gly) on Fmoc affects binding to BSA, a similar experiment was run with Fmoc-Gly-OH (Nova Biochem). The intrinsic fluorescing properties of Fmoc were used for the anisotropy experiments.
To determine whether a neighbouring hydrophobic bulky group has an enhancing or adverse effect on BSA binding, Fmoc-Phe-OH was tested as above.
The solid phase resin employed was PAL-PEG-PS from Applied Biosystems. […] All peptides were capped with an N-terminal Fmoc, and a C-terminal amide (NH2). After cleavage, peptides were lyophilised, and solubilised in 5 mL of DMF. 100 μl of this was loaded onto an analytical C18 column using a Waters HPLC, using methanol and water (both in the presence of 0.1% TFA) as solvents. […] The peptide concentration in the cuvette was 200 nM.
Excitation was at 299 nm (to minimise Trp absorption), and emission at 320 nm. Slit widths were at 5 and 12 nm, respectively.
Peptide concentrations were estimated by the absorbance at 299 nm, using the extinction coefficient of 4700/M/cm. Excitation was at 299 nm, and emission was set to 320 nm, at slit widths of 5 and 12 nm, respectively.

Data set [4] deals with T1, MDM2 (res 2-125) (Homo sapiens, UniProt Q00987).
T1 construct: made in house
T1 sequence (Q00987 2-125): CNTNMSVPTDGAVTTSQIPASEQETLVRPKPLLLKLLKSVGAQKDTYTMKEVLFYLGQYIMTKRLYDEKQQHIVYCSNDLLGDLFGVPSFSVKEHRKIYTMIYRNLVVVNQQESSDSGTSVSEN
The data set can be described thus: Fluorescence anisotropy titration with MDM2. Type of data set: binding. Here is the method:
Titration experiments were run on a Horiba Jobin Yvon fluorimeter equipped with the Hamilton Microlab titrator controlled by laboratory software. The λex and λem used were 295 nm and 350 nm, respectively. The slit widths for excitation and emission were 5 nm and 15 nm and the integration time 10 s was used for each measurement. The intrinsic fluorescence of tryptophan in peptides 10, 48 was used to measure their binding affinity for MDM2 (res 2-125). The experiments were performed at 23 C.° in PBS, 5 mM DTT. Usually 250 ul of MDM2 (150 uM) was titrated into 1.2 ml of peptide (1 uM). Titration data were analyzed with a standard 1:1 binding model by using the quadratic solution to the equilibrium Kd=[A][B]/[AB]. […] The fitting equation contained an extra term to account for linear drift.
Mdm2 binds the complete PEP48 peptide with good affinity. We now determined whether Mdm2 binding is still functional within the Fmoc-Trp-linker-bicyclic derivative. 250 μL of 18.8 μM Mdm2 (expressed and purified as described in Teufel et al, PNAS 2007) was titrated into 1.2 ml of 500 nM peptide. A strong binding event occurred (Kd<1 μM), however, the data could not be fitted as the Kd was too far below the concentration of peptide employed in the experiment (FIG. 9). Lower concentrations of peptide could not be used due to technical limitations. Accurate determination of dissociation constants of this peptide to Mdm2 will require a better fluorophore than Fmoc (see above), or different methodologies such as isothermal titration calorimetry (ITC).

Data set [5] can be described thus: Solubility in water. The class given is physicochemical.
The target of data set [6] is T2, Kallikrein (Homo sapiens, UniProt P03952).
T2 construct: purchased Sigma Aldrich
T2 sequence (P03952 20-638): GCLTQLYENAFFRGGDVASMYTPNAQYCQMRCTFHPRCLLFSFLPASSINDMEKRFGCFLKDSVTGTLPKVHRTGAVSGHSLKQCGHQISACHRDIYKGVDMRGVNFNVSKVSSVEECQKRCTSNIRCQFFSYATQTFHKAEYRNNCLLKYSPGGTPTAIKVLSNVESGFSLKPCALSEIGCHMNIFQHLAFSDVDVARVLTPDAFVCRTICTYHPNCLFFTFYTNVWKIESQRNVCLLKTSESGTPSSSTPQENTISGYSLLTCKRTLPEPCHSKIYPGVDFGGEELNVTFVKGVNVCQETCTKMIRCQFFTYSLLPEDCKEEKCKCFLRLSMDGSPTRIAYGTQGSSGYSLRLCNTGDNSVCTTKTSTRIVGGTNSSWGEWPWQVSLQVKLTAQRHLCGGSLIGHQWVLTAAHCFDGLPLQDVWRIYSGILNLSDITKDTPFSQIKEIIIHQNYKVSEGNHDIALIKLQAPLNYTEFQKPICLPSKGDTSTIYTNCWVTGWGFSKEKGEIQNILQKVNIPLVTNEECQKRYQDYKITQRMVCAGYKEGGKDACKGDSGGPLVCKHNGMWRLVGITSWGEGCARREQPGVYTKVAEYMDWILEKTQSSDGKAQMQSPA
Kind of data set: Kallikrein assays (Z-Phe-Arg-amc substrate). Type of data set: biochemical. Here is the method: Enzymes were purchased from Sigma Aldrich and substrates from Bachem A G. The assay buffer is composed of 10 mM Tris pH 7.4, 150 mM NaCl, 10 mM MgCl2, 1 mM CaCl2, 0.1% BSA, 0.01% Triton X100 and 5% DMSO. Enzymes are incubated with inhibitors for 30 minutes at RT prior to addition of substrate. All experiments were recorded at 30° C. for 90 minutes.
Assays were performed on a BMG Pherastar plate reader at wavelengths of exc/em 350/450 nm. Kallikrein was bought as a solution of 1080 μg/mL and diluted to a working concentration of 0.3 nM in assay buffer. Substrate Z-Phe-Arg-amc was solubilised at the stock concentration of 10 mM in DMSO and diluted to a working concentration of 300 μM with assay buffer. Inhibitors were solubilised in assay buffer to a stock concentration of 60 μM. 50 μL of each reagent is introduced in wells for a final volume of 150 μL per well. Final concentration of kallikrein in assay is 0.1 nM and substrate is 100 μM.
Final concentrations of inhibitors were: 0.5 nM, 1 nM, 2 nM, 5 nM, 8 nM, 10 nM, 20 nM, 50 nM, 80 nM, 100 nM, 200 nM, 500 nM, 800 nM, 1 μM, 2 μM, 5 μM, 8 μM, 10 μM and 20 μM. The initial rate of the reaction is obtained by plotting fluorescence=f (time) data and by fitting a linear trendline for each concentration of inhibitor. The inhibition curves are obtained by plotting initial rate=f ([I]) and IC50 values can be evaluated.

Where two headings read alike, the source gives them in different places. Residues, ends and D or L forms follow the SMILES beside them. No end group written: not given here.

Sequence of bovine serum albumin (BSA) (P02769 25-607): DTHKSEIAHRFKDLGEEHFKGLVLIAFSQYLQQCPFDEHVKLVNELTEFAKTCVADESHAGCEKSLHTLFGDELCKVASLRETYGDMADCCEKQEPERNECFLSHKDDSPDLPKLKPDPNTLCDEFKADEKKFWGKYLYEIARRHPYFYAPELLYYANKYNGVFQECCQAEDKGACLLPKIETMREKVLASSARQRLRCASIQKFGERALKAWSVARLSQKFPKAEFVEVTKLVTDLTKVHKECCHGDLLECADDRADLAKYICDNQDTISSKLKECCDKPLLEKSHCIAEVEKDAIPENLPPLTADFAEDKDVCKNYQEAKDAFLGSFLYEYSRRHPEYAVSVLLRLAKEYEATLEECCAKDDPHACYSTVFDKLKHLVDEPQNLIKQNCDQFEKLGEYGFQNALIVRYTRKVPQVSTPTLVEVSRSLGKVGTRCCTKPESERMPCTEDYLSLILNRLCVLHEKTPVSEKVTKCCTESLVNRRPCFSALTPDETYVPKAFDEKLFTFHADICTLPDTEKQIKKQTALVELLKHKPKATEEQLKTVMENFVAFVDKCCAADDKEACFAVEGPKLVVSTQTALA

On to “Pep48-D3: SCVRFGWTCDNSWHGCKG with C-terminal DDD (control), N-terminal fluorescein or methoxy-coumarin (SCVRFGWTCDNSWHGCKGDDD; cysteine pairing not given here; also: N-terminal fluorescein or methoxy-coumarin)”, for which, in data set [1], the “cell penetration (fluorescent staining within the cell)” value is “not”.

Broadly, the Kd is the concentration at which binding is half-saturated. Take `O=C(NC(Cc1ccccc1)C(=O)O)OCC1c2ccccc2-c2ccccc21` (centres unmarked) [Fmoc-Phe-OH]: the Kd is ~10 nM in data set [2] and ~100 nM in data set [3].

In turn, `CC(C)[C@@H]1NC(=O)[C@@H](NC(=O)[C@@H](N)CO)CSCc2cc3cc(c2)CSC[C@H](NC(=O)[C@H]([C@@H](C)O)NC(=O)[C@H](Cc2c[nH]c4ccccc24)NC(=O)CNC(=O)[C@H](Cc2ccccc2)NC(=O)[C@H](CCCNC(=N)N)NC1=O)C(=O)N[C@@H](CC(=O)O)C(=O)N[C@@H](CC(N)=O)C(=O)N[C@@H](CO)C(=O)N[C@@H](Cc1c[nH]c2ccccc12)C(=O)N[C@@H](Cc1c[nH]cn1)C(=O)NCC(=O)N[C@H](C(=O)N[C@@H](CCCCN)C(=O)NCC(=O)O)CSC3` [PEP48] (HELM PEPTIDE1{S.C.V.R.F.G.W.T.C.D.N.S.W.H.G.C.K.G}|CHEM1{[c1c(C[*:1])cc(C[*:3])cc1C[*:2]]}$PEPTIDE1,CHEM1,2:R3-1:R1|PEPTIDE1,CHEM1,9:R3-1:R2|PEPTIDE1,CHEM1,16:R3-1:R3$$$V2.0) yielded a Kd in data set [4] of 500 to 800 nM.

The IC50 is the concentration at which inhibition is half-maximal. As for `CC(C)[C@@H]1NC(=O)[C@@H](NC(=O)[C@H](C)NC(=O)CNC(=O)CNC(=O)CNC(=O)[C@H](Cc2c[nH]c3ccccc23)NC(=O)OCC2c3ccccc3-c3ccccc32)CSCc2cc3cc(c2)CSC[C@H](NC(=O)[C@H]([C@@H](C)O)NC(=O)[C@H](Cc2c[nH]c4ccccc24)NC(=O)CNC(=O)[C@H](Cc2ccccc2)NC(=O)[C@H](CCCNC(=N)N)NC1=O)C(=O)N[C@@H](CO)C(=O)N[C@@H](CC(=O)O)C(=O)N[C@@H](CCCNC(=N)N)C(=O)N[C@@H](Cc1ccccc1)C(=O)N[C@@H](CCCNC(=N)N)C(=O)N[C@@H](CC(N)=O)C(=O)N[C@H](C(=O)NCC(N)=O)CSC3` [FmocPEP48L1-PK15L1 bicyclic] (HELM PEPTIDE1{[O=C(OCC1c2ccccc2-c2ccccc21)[*:2]].W.G.G.G.A.C.V.R.F.G.W.T.C.S.D.R.F.R.N.C.G.[am]}|CHEM1{[c1c(C[*:1])cc(C[*:3])cc1C[*:2]]}$PEPTIDE1,CHEM1,7:R3-1:R1|PEPTIDE1,CHEM1,14:R3-1:R2|PEPTIDE1,CHEM1,21:R3-1:R3$$$V2.0), the solubility in water entry in data set [5] was “not well soluble in water”. The Kd in data set [4] was < 1000 nM; in data set [4] (read-out: Kd for Mdm2, 18.8 μM Mdm2 titrated into 500 nM peptide, data could not be fitted (FIG. 9)), < 1000 nM; in data set [3] (Kd for BSA, fluorescence anisotropy in PBS), ~60 nM. Also, the IC50 is 17000 nM in data set [6] (IC50 for inhibition of kallikrein activity, 0.1 nM kallikrein, 100 μM substrate, 30° C.) and ~17000 nM in data set [6] (IC50 for inhibition of kallikrein, preliminary experiment, restated in Example 3).

As to “Pep48-R3: SCVRFGWTCDNSWHGCKG with C-terminal RRR, N-terminal fluorescein or methoxy-coumarin (SCVRFGWTCDNSWHGCKGRRR; cysteine pairing not given here; also: N-terminal fluorescein or methoxy-coumarin)”, in data set [1], the “cell penetration (fluorescent staining within the cell)” value was “fluorescent staining within the cell”.

The values above are taken from patent publication US9670482B2, “Multispecific peptides” (BICYCLE THERAPEUTICS LIMITED, priority 2009, dated 2017).
